In PMC7508162 (Frontiers in Pharmacology, 2020):
“Also recorded” adds a separate entry of the source. Like-named read-outs stand apart in the source and are kept apart here.

Target: T1, human CD39 (Homo sapiens, UniProt P49961)
T1 sequence (P49961 1-510): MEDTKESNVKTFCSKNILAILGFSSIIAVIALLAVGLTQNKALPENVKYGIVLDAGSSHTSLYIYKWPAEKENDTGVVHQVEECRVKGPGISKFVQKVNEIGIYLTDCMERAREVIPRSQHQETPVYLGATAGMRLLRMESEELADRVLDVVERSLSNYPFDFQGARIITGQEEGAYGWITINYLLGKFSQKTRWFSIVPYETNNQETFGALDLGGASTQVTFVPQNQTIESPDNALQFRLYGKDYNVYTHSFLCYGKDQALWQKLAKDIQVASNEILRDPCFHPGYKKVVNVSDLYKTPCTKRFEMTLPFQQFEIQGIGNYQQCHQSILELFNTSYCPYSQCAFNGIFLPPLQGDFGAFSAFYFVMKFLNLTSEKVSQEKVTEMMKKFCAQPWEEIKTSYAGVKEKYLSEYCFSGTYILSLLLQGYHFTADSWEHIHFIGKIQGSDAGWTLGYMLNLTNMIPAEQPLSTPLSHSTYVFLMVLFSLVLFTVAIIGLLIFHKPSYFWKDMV
Assay: Fluorescence capillary electrophoresis assay for CD39
Type: biochemical
Design: Human umbilical cord membrane preparations (250 ng) natively expressing high amounts of CD39; from tissue; host or cells: human umbilical cord membranes
Conditions: for Ki: human umbilical cord membrane preparation, n = 3, Cheng-Prusoff; for CD39 inhibition (in words) / IC50 (in words): human CD39; for inhibition at 10 µM: read-out: % inhibition at 10 µM
Experimental: They were minced and homogenized with a polytron in 95 mM NaCl, 0.1 mM phenylmethylsulfonyl fluoride (PMSF), and 45 mM Tris solution, pH 7.6. […] The pellets were resuspended in 5 mM Tris buffer solution, pH 8.0 and 10% glycerol. All purification steps were performed at 4°C. The preparations were kept at −80°C.
For inhibition screening, three independent experiments were performed. […] The reaction buffer contained 10 mM HEPES, 2 mM CaCl2, 1 mM MgCl2, pH 7.4. The samples were incubated at 37°C for 4 min, and the enzymatic reaction was terminated by heating at 90°C for 5 min. The solution was then diluted 1:20 with reaction buffer to perform separation of nucleotides by capillary electrophoresis (CE) followed by laser-induced fluorescence (LIF) detection. […] Three independent experiments were performed, and curves were calculated by GraphPad Prism 8 software (GraphPad software, San Diego, CA, USA).
Analysis was carried out using a P/ACE MDQ capillary electrophoresis system (Beckman Instruments, Fullerton, CA, USA). The separation was performed in a polyacrylamide-coated capillary [30 cm (10 cm effective length) × 50 µm (id), × 360 µm (od)]. Before each run, the capillary was rinsed with the background electrolyte [50 mM phosphate buffer (pH 6.5)] for 1 min at 30 psi. Samples were electrokinetically injected by applying a voltage of -6 kV for 30 s at the capillary outlet, and the fluorescent nucleotide derivatives were separated by voltage application of -15 kV. […] Data collection and peak area analysis were performed by the P/ACE MDQ software 32 KARAT obtained from Beckman Coulter (Fullerton, CA, USA).

[1] = fluorescent substrate PSB-017621A 0.5 µM, read-out: Ki ± SEM
[2] = ratio of Ki values, fluorescence CE assay
[3] = screening at 10 µM, fluorescent substrate PSB-017621A 0.5 µM

Compound	Ki [1]	inhibition at 10 µM [3]	also measured
CN(C)c1ncnc2c1ncn2[C@@H]1O[C@H](COP(=O)(O)OP(=O)(O)C(Br)(Br)P(=O)(O)O)[C@@H](O)[C@H]1O [Compound 24, (Dibromo((((((2R,3S,4R,5R)-5-(6-(dimethylamino)-9H-purin-9-yl)-3,4-dihydroxytetrahydro-furan-2-yl)methoxy)-(hydroxy)phosphoryl)oxy)(hydroxy)phosphoryl)methyl)-phosphonic Acid]	40.1 ± 7 µM		fold decrease in CD39 potency compared to I [2]: 41 fold
CCN(C)c1ncnc2c1ncn2[C@@H]1O[C@H](COP(=O)(O)OP(=O)(O)C(Br)(Br)P(=O)(O)O)[C@@H](O)[C@H]1O [Compound 25, (Dibromo((((((2R,3S,4R,5R)-5-(6-(ethyl(methyl)amino)-9H-purin-9-yl)-3,4-dihydroxytetra-hydrofuran-2-yl)methoxy)-(hydroxy)phosphoryl)oxy)(hydroxy)phosphoryl)methyl)-phosphonic Acid]	6.48 ± 2.6 µM		fold decrease in CD39 potency compared to I [2]: about 7 fold
CCCN(C)c1ncnc2c1ncn2[C@@H]1O[C@H](COP(=O)(O)OP(=O)(O)C(Br)(Br)P(=O)(O)O)[C@@H](O)[C@H]1O [Compound 26, (Dibromo((((((2R,3S,4R,5R)-3,4-dihydroxy-5-(6-(methyl-(propyl)amino)-9H-purin-9-yl)tetra-hydrofuran-2-yl)-methoxy)(hydroxy)phosphoryl)oxy)(hydroxy)phosphoryl)-methyl)phosphonic Acid]	4.04 ± 2.12 µM		
CCCN(CCC)c1ncnc2c1ncn2[C@@H]1O[C@H](COP(=O)(O)OP(=O)(O)C(Br)(Br)P(=O)(O)O)[C@@H](O)[C@H]1O [Compound 27, (Dibromo((((((2R,3S,4R,5R)-5-(6-(dipropylamino)-9H-purin-9-yl)-3,4-dihydroxytetrahydro-furan-2-yl)methoxy)-(hydroxy)phosphoryl)oxy)(hydroxy)phosphoryl)methyl)-phosphonic Acid]	2.68 ± 1.11 µM		
CCCN(CC)c1ncnc2c1ncn2[C@@H]1O[C@H](COP(=O)(O)OP(=O)(O)C(Br)(Br)P(=O)(O)O)[C@@H](O)[C@H]1O [Compound 28, (Dibromo((((((2R,3S,4R,5R)-5-(6-(ethyl(propyl)amino)-9H-purin-9-yl)-3,4-dihydroxytetra-hydrofuran-2-yl)methoxy)-(hydroxy)phosphoryl)oxy)(hydroxy)phosphoryl)methyl)-phosphonic Acid]	2.22 ± 0.02 µM		
O=P(O)(OC[C@H]1O[C@@H](n2cnc3c(NCc4ccccc4)ncnc32)[C@H](O)[C@@H]1O)OP(=O)(O)C(Br)(Br)P(=O)(O)O [Compound 29, (((((((2R,3S,4R,5R)-5-(6-(Benzylamino)-9H-purin-9-yl)-3,4-dihydroxytetrahydrofuran-2-yl)methoxy)(hydroxy)-phosphoryl)oxy)(hydroxy)phosphoryl)dibromomethyl)-phosphonic Acid]	> 10 µM	4%	CD39 inhibition (in words): abolishment of the CD39-inhibiting activity
O=P(O)(OC[C@H]1O[C@@H](n2cnc3c(NCCc4ccccc4)ncnc32)[C@H](O)[C@@H]1O)OP(=O)(O)C(Br)(Br)P(=O)(O)O [Compound 30, (Dibromo((((((2R,3S,4R,5R)-3,4-dihydroxy-5-(6-(phenethylamino)-9H-purin-9-yl)tetrahydrofuran-2-yl)-methoxy)(hydroxy)phosphoryl)oxy)(hydroxy)phosphoryl)-methyl)phosphonic Acid]	4.82 ± 0.21 µM		
CNc1ncnc2c1nc(NC1CC1)n2[C@@H]1O[C@H](COP(=O)(O)OP(=O)(O)C(Br)(Br)P(=O)(O)O)[C@@H](O)[C@H]1O [Compound 32, (Dibromo((((((2R,3S,4R,5R)-5-(8-(cyclopropylamino)-6-(methylamino)-9H-purin-9-yl)-3,4-di-hydroxytetrahydrofuran-2-yl)methoxy)(hydroxy)-phosphoryl)oxy)(hydroxy)phosphoryl)methyl)phosphonic-Acid]	5.72 ± 0.86 µM		
CCCCNc1nc2c(N(C)C)ncnc2n1[C@@H]1O[C@H](COP(=O)(O)OP(=O)(O)C(Br)(Br)P(=O)(O)O)[C@@H](O)[C@H]1O [Compound 34, (Dibromo((((((2R,3S,4R,5R)-5-(8-(butylamino)-6-(dimethylamino)-9H-purin-9-yl)-3,4-di-hydroxytetrahydrofuran-2-yl)methoxy)(hydroxy)-phosphoryl)oxy)(hydroxy)phosphoryl)methyl)-phosphonic Acid]	~10 µM	54%	
CCN(CC)c1ncnc2c1nc(NC)n2[C@@H]1O[C@H](COP(=O)(O)OP(=O)(O)C(Br)(Br)P(=O)(O)O)[C@@H](O)[C@H]1O [Compound 35, (Dibromo((((((2R,3S,4R,5R)-5-(6-(diethylamino)-8-(methylamino)-9H-purin-9-yl)-3,4-di-hydroxytetrahydrofuran-2-yl)methoxy)(hydroxy)phosphoryl)-oxy)(hydroxy)phosphoryl)methyl)phosphonic Acid]	~10 µM	59%	
CCCCSc1nc2c(NC)ncnc2n1[C@@H]1O[C@H](COP(=O)(O)OP(=O)(O)C(Br)(Br)P(=O)(O)O)[C@@H](O)[C@H]1O [Compound 36, (Dibromo((((((2R,3S,4R,5R)-5-(8-(butylthio)-6-(methylamino)-9H-purin-9-yl)-3,4-dihydroxy-tetrahydrofuran-2-yl)methoxy)(hydroxy)phosphoryl)oxy)-(hydroxy)phosphoryl)methyl)phosphonic Acid]	> 10 µM	39%	
Nc1ncnc2c1ncn2[C@@H]1O[C@H](COP(=O)(O)OP(=O)(O)C(Br)(Br)P(=O)(O)O)[C@@H](O)[C@H]1O [Compound 38, (((((((2R,3S,4R,5R)-5-(6-amino-9H-purin-9-yl)-3,4-dihydroxytetrahydrofuran-2-yl)methoxy)-(hydroxy)-phosphoryl)oxy)(hydroxy)phosphoryl)dibromomethyl)-phosphonic Acid]	5.26 ± 0.22 µM		IC50 (in words): low micromolar range; fold decrease in CD39 potency compared to I [2]: about 5 fold
Nc1ncnc2c1ncn2[C@@H]1O[C@H](COP(=O)(O)OP(=O)(O)C(Cl)(Cl)P(=O)(O)O)[C@@H](O)[C@H]1O [Compound 39, (((((((2R,3S,4R,5R)-5-(6-Amino-9H-purin-9-yl)-3,4-dihydroxytetrahydrofuran-2-yl)methoxy)-(hydroxy)-phosphoryl)oxy)(hydroxy)phosphoryl)dichloromethyl)-phosphonic Acid]	9.53 ± 1.46 µM		IC50 (in words): low micromolar range; fold less potent than dibromo-derivative 38 at CD39 [2]: about 2 fold
Nc1ncnc2c1ncn2[C@@H]1O[C@H](COP(=O)(O)CP(=O)(O)O)[C@@H](O)[C@H]1O [Compound 42, α,β-Methylene-ADP, reference compound]			Ki (Ki ± SEM, fluorescent substrate PSB-017621A 0.5 µM): > 10 µM; inhibition at 10 µM: 14%
Nc1ncnc2c1ncn2[C@@H]1O[C@H](COP(=O)(O)OP(=O)(O)CP(=O)(O)O)[C@@H](O)[C@H]1O [Compound 43, β,γ-Methylene-ATP, reference compound]	> 10 µM	23%	CD39 inhibition (in words): virtually inactive; also recorded: no significant inhibition
